Key:
[1] = test system: IAV; assay: microbe, parasite or virus in culture; assay type: cell-based, Human influenza A/Udorn/307/1972 (H3N2); conditions: for EC50: Influenza A virus, RPE
[2] = design: method as in earlier work; conditions: cited from earlier work
[3] = in vitro; conditions: human
[4] = test system: IAV-infected RPE cells; assay type: cell-based, human
[5] = test system: IAV-infected RPE cells; assay type: cell-based, human; remark: listed apart in the source
[6] = test system: MERS-CoV; assay type: cell-based; conditions: Vero cells, 24 hpi, moi 0.1
[7] = test system: vRNA-transfected RPE cells; assay type: cell-based, human
[8] = test system: RPE or A549 cells treated with bacterial lipopolysaccharides (LPS); assay: Death of cells treated with bacterial LPS; assay type: cell-based, human; conditions: LPS 10 µg/ml
[9] = test system: mock-infected RPE cells; conditions: human
[10] = test system: IAV-infected RPE and A549 cells; assay type: cell-based, human

Structure (SMILES) | effect on viral replication [1] | EC50 [1] [nM] | CC50 [3] [nM] | rescue from ABT-263-mediated premature death [10] | also measured
CN(C)CC#Cc1ccc(OCCCc2sc(N3CCc4cccc(C(=O)Nc5nc6ccccc6s5)c4C3)nc2C(=O)O)c(F)c1 [A-1155463] | limited viral replication | < 10 | 60 |  | side effect in animals [2]: reversible thrombocytopenia
Cc1c(-c2ccc(N3CCc4cccc(C(=O)Nc5nc6ccccc6s5)c4C3)nc2C(=O)O)cnn1CC12CC3CC(CC(C3)C1)C2 [A-1331852] | limited viral replication | < 10 | 50 |  | 
CC1(C)CCC(CN2CCN(c3ccc(C(=O)NS(=O)(=O)c4ccc(NCC5CCOCC5)c([N+](=O)[O-])c4)c(Oc4cnc5[nH]ccc5c4)c3)CC2)=C(c2ccc(Cl)cc2)C1 [ABT-199] |  | 3710 | 4640 |  | 
CC1(C)CCC(c2ccc(Cl)cc2)=C(CN2CCN(c3ccc(C(=O)NS(=O)(=O)c4ccc(N[C@H](CCN5CCOCC5)CSc5ccccc5)c(S(=O)(=O)C(F)(F)F)c4)cc3)CC2)C1 [ABT-263] | limited viral replication | 80 | 800 |  | ΔAUC CTxG [4]: 2.5; time post infection at which premature death of infected cells was observed [5]: ≤ 12 h; ΔAUC CTG [5]: 9.9; PFU/ml [1]: 0.01x10^6 PFU/ml; Virus titer FC (log10) [1]: 2.0±0.2 log10; effect on MERS-CoV replication [6]: blocks MERS-CoV replication; death of vRNA-transfected cells [7]: kills vRNA-transfected (160 ng) but not mock-transfected RPE cells; death of LPS-treated cells [8]: did not accelerate the death; time without toxicity in mock-infected cells [9]: at least 36 h
CN(C)CC[C@H](CSc1ccccc1)Nc1ccc(S(=O)(=O)NC(=O)c2ccc(N3CCN(Cc4ccccc4-c4ccc(Cl)cc4)CC3)cc2)cc1[N+](=O)[O-] [ABT-737] | limited viral replication | 280 | 350 |  | 
O=C(O)[C@H]1C2CCC(CC2)[C@@H]1Nc1nc(-c2c[nH]c3ncc(F)cc23)ncc1F [JNJ-872] |  |  |  | rescued | 
COC1=CC(c2cc3ccccc3[nH]2)=N/C1=C\c1[nH]c(C)cc1C [Obatoclax, obatoclax] |  |  |  | rescued | 
C[C@H]1C/C=C/Cc2cccc(O)c2C(=O)O[C@@H](C/C=C/NC(=O)C#Cc2ccccc2)C[C@H]1O [SaliPhe, Saliphenylhalamide] |  |  |  | rescued | 
Nc1ccn([C@@H]2O[C@H](CO)[C@@H](O)C2(F)F)c(=O)n1 [gemcitabine] |  |  |  | rescued | 

From PMC5691623 (Viruses, 2017)
